Test results published in patent EP3138561A1 (priority 2014, dated 2015).
Where two headings read alike, the source gives them in different places.

Legend:
[1] = system: Burkholderia cenocepacia; type: cell-based
[2] = system: Burkholderia anthina; type: cell-based
[3] = system: Burkholderia mallei; type: cell-based
[4] = system: Burkholderia ambifaria; type: cell-based
[5] = system: Burkholderia multivorans; type: cell-based
[6] = system: Burkholderia stabilis; type: cell-based
[7] = system: Burkholderia pseudomallei; type: cell-based
[8] = system: Burkholderia dolosa; type: cell-based
[9] = system: Burkholderia cepacia; type: cell-based
[10] = system: Burkholderia vietnamiensis; type: cell-based
[11] = system: Burkholderia pyrrocinia; type: cell-based
[12] = system: Burkholderia gladioli; type: cell-based
[13] = white crystalline powder; cited from earlier work
[14] = system: Pseudomonas aeruginosa; details: all three groups of patients; day 10 of therapy
[15] = system: Burkholderia cepacia; details: 0.02% solution
[16] = system: bacteria of the Burkholderia genus; type: cell-based; details: all species of bacteria of the Burkholderia genus

In the case of `N=C(NCCCCCCNC(=N)NC(=N)Nc1ccc(Cl)cc1)NC(=N)Nc1ccc(Cl)cc1` [chlorhexidine bigluconate], the activity ([1]; Concentration 0,2%) is reported as “+”, the activity ([1]; Concentration 0.02%) is reported as “+” and the activity ([1]; Concentration 0.05%) is reported as “+”. For the same compound, the activity ([1]; Concentration 0.1%) was “+”, the activity ([2]; Concentration 0,2%) was “+” and the activity ([2]; Concentration 0.02%) was “-”. For the same compound, the activity ([2]; Concentration 0.05%) was “-”, the activity ([2]; Concentration 0.1%) was “+” and the activity ([3]; Concentration 0,2%) was “+”. For the same compound, the activity ([3]; Concentration 0.02%) was “-”, the activity ([3]; Concentration 0.05%) was “-” and the activity ([3]; Concentration 0.1%) was “+”. For the same compound, the activity ([4]; Concentration 0,2%) was “+”, the activity ([4]; Concentration 0.02%) was “-” and the activity ([4]; Concentration 0.05%) was “-”. For the same compound, the activity ([4]; Concentration 0.1%) was “+”, the activity ([5]; Concentration 0,2%) was “++” and the activity ([5]; Concentration 0.02%) was “+”. The activity ([5]; Concentration 0.05%) was “+”, the activity ([5]; Concentration 0.1%) was “++” and the activity ([6]; Concentration 0,2%) was “+”. The activity ([6]; Concentration 0.02%) was “+”, the activity ([6]; Concentration 0.05%) was “+” and the activity ([6]; Concentration 0.1%) was “+”. The activity ([7]; Concentration 0,2%) was “+”, the activity ([7]; Concentration 0.02%) was “-” and the activity ([7]; Concentration 0.05%) was “-”. The activity ([7]; Concentration 0.1%) was “+”, the activity ([8]; Concentration 0,2%) was “++” and the activity ([8]; Concentration 0.02%) was “+”. For the same compound, the activity ([8]; Concentration 0.05%) was “+”, the activity ([8]; Concentration 0.1%) was “++” and the activity ([9]; Concentration 0,2%) was “+”. The activity ([9]; Concentration 0.02%) was “-”, the activity ([9]; Concentration 0.05%) was “-” and the activity ([9]; Concentration 0.1%) was “+”. The activity ([10]; Concentration 0,2%) was “+”, the activity ([10]; Concentration 0.02%) was “-” and the activity ([10]; Concentration 0.05%) was “+”. The activity ([10]; Concentration 0.1%) was “+”, the activity ([11]; Concentration 0,2%) was “+” and the activity ([11]; Concentration 0.02%) was “-”. The activity ([11]; Concentration 0.05%) was “-”, the activity ([11]; Concentration 0.1%) was “+” and the activity ([12]; Concentration 0,2%) was “++”. The activity ([12]; Concentration 0.02%) was “+”, the activity ([12]; Concentration 0.05%) was “+” and the activity ([12]; Concentration 0.1%) was “+”.

In the case of `CC1CCC(C(C)C)C(OC(=O)C[N+](C)(C)CCCCCCCCCC[N+](C)(C)CC(=O)OC2CC(C)CCC2C(C)C)C1` (stereo not drawn) [decamethoxine, 1,10-decamethylene-bis(N,N-dimethyl-menthoxycarbonylmethyl)ammonium dichloride], the solubility in water [13] is given as “readily soluble in water”, the activity ([1]; Concentration 0,2%) is given as “+++” and the activity ([1]; Concentration 0.02%) is given as “+”. The activity ([1]; Concentration 0.05%) was “++”, the activity ([1]; Concentration 0.1%) was “+++” and the activity ([2]; Concentration 0,2%) was “+++”. For the same compound, the activity ([2]; Concentration 0.02%) was “+”, the activity ([2]; Concentration 0.05%) was “++” and the activity ([2]; Concentration 0.1%) was “+++”. For the same compound, the “clinical outcome (clinical, laboratory and functional indices)” value [14] was “the patients were cured”, the Mean therapy time ([15]; ultrasonic inhalations) was 7 days and the “negative side effects making withdrawal necessary” value ([15]; ultrasonic inhalations) was “No patients had negative side effects”. For the same compound, the “patients with positive effect after decamethoxine therapy” value ([15]; ultrasonic inhalations) was 41%, the “patients with body temperature normalized” value ([15]; ultrasonic inhalations 5-20 ml 1-2 times daily, days 3-5) was 75% and the “tolerance to the therapy” value ([15]; ultrasonic inhalations, all patients) was “Good tolerance”. For the same compound, the “patients with persistent cough” value ([15]; ultrasonic inhalations, days 3-5, character changed from "strong" to "moderate" or "weak") was 75%, the “patients in whom dyspnea persisted” value ([15]; ultrasonic inhalations, days 3-5, characterized as "insignificant") was 30% and the “patients complaining of moderate cough” value ([15]; ultrasonic inhalations, days 7-10) was 14%. For the same compound, the “cases in which fine moist rales were heard” value ([15]; ultrasonic inhalations, physical examination) was 43%, the activity ([3]; Concentration 0,2%) was “+++” and the activity ([3]; Concentration 0.02%) was “+”. For the same compound, the activity ([3]; Concentration 0.05%) was “++”, the activity ([3]; Concentration 0.1%) was “+++” and the activity ([4]; Concentration 0,2%) was “+++”. The activity ([4]; Concentration 0.02%) was “+”, the activity ([4]; Concentration 0.05%) was “++” and the activity ([4]; Concentration 0.1%) was “+++”. The activity ([5]; Concentration 0,2%) was “+++”, the activity ([5]; Concentration 0.02%) was “+” and the activity ([5]; Concentration 0.05%) was “++”. The activity ([5]; Concentration 0.1%) was “+++”, the activity ([6]; Concentration 0,2%) was “+++” and the activity ([6]; Concentration 0.02%) was “+”. The activity ([6]; Concentration 0.05%) was “++”, the activity ([6]; Concentration 0.1%) was “+++” and the activity ([7]; Concentration 0,2%) was “+++”. For the same compound, the activity ([7]; Concentration 0.02%) was “+”, the activity ([7]; Concentration 0.05%) was “++” and the activity ([7]; Concentration 0.1%) was “+++”. For the same compound, the activity ([8]; Concentration 0,2%) was “+++”, the activity ([8]; Concentration 0.02%) was “+” and the activity ([8]; Concentration 0.05%) was “++”. The activity ([8]; Concentration 0.1%) was “+++”, the activity ([9]; Concentration 0,2%) was “+++” and the activity ([9]; Concentration 0.02%) was “+”. For the same compound, the activity ([9]; Concentration 0.05%) was “++”, the activity ([9]; Concentration 0.1%) was “+++” and the bactericidal activity [16] was “exhibits bactericidal activity”. For the same compound, the activity ([10]; Concentration 0,2%) was “+++”, the activity ([10]; Concentration 0.02%) was “+” and the activity ([10]; Concentration 0.05%) was “++”. The activity ([10]; Concentration 0.1%) was “+++”, the activity ([11]; Concentration 0,2%) was “+++” and the activity ([11]; Concentration 0.02%) was “+”. The activity ([11]; Concentration 0.05%) was “++”, the activity ([11]; Concentration 0.1%) was “+++” and the activity ([12]; Concentration 0,2%) was “+++”. The activity ([12]; Concentration 0.02%) was “+”, the activity ([12]; Concentration 0.05%) was “++” and the activity ([12]; Concentration 0.1%) was “+++”.
